Experimental data published in the NIST ThermoML archive (doi:10.1016/j.jct.2019.05.023).
Numbers after ± are expanded uncertainties.

Test: xn = mol fraction of the nth substance listed
Settings: 101.3 kPa, Liquid; for speed of sound: Frequency=3 MHz, Single path-length method; for mass density: Vibrating tube method

CCCOCCO [2-propoxyethanol] + CCn1cc[n+](C)c1.O=S(=O)([O-])C(F)(F)F
Settings | mass density, 298.15 K [kg/m3] | mass density, 303.15 K [kg/m3] | mass density, 308.15 K [kg/m3] | mass density, 313.15 K [kg/m3] | mass density, 318.15 K [kg/m3] | speed of sound, 298.15 K [m/s] | speed of sound, 303.15 K [m/s] | speed of sound, 308.15 K [m/s] | speed of sound, 313.15 K [m/s] | speed of sound, 318.15 K [m/s]
x2 = 0 | 908 ± 2 | 903 ± 2 | 899 ± 2 | 895 ± 2 | 890 ± 2 | 1301 ± 10 | 1283 ± 10 | 1266 ± 10 | 1248 ± 10 | 1231 ± 10
x2 = 0.051 | 945 ± 3 | 940 ± 3 | 936 ± 3 | 931 ± 3 | 927 ± 3 | 1308 ± 10 | 1292 ± 10 | 1275 ± 10 | 1258 ± 10 | 1241 ± 10
x2 = 0.104 | 981 ± 2 | 976 ± 2 | 972 ± 2 | 968 ± 2 | 963 ± 2 | 1317 ± 10 | 1300 ± 10 | 1284 ± 10 | 1268 ± 10 | 1252 ± 10
x2 = 0.199 | 1042 ± 2 | 1037 ± 2 | 1033 ± 2 | 1029 ± 2 | 1024 ± 2 | 1331 ± 10 | 1316 ± 10 | 1301 ± 10 | 1286 ± 10 | 1271 ± 10
x2 = 0.241 | 1067 ± 2 | 1063 ± 2 | 1059 ± 2 | 1054 ± 2 | 1050 ± 2 | 1338 ± 10 | 1323 ± 10 | 1308 ± 10 | 1294 ± 10 | 1279 ± 10
x2 = 0.296 | 1098 ± 2 | 1094 ± 2 | 1089 ± 2 | 1085 ± 2 | 1081 ± 2 | 1346 ± 10 | 1332 ± 10 | 1318 ± 10 | 1304 ± 10 | 1289 ± 10
x2 = 0.416 | 1161 ± 2 | 1157 ± 2 | 1153 ± 2 | 1149 ± 2 | 1145 ± 2 | 1364 ± 10 | 1351 ± 10 | 1338 ± 10 | 1324 ± 10 | 1311 ± 10
x2 = 0.506 | 1204 ± 2 | 1200 ± 2 | 1196 ± 2 | 1192 ± 2 | 1187 ± 2 | 1377 ± 10 | 1364 ± 10 | 1352 ± 10 | 1339 ± 10 | 1327 ± 10
x2 = 0.606 | 1247 ± 2 | 1243 ± 2 | 1239 ± 2 | 1235 ± 2 | 1231 ± 2 | 1391 ± 10 | 1379 ± 10 | 1367 ± 10 | 1355 ± 10 | 1343 ± 10
x2 = 0.698 | 1284 ± 2 | 1280 ± 2 | 1276 ± 2 | 1272 ± 2 | 1268 ± 2 | 1404 ± 10 | 1392 ± 10 | 1381 ± 10 | 1369 ± 10 | 1357 ± 10
x2 = 0.808 | 1324 ± 2 | 1320 ± 2 | 1316 ± 2 | 1311 ± 2 | 1307 ± 2 | 1419 ± 10 | 1408 ± 10 | 1396 ± 10 | 1385 ± 10 | 1374 ± 10
x2 = 0.845 | 1336 ± 2 | 1332 ± 2 | 1328 ± 2 | 1324 ± 2 | 1320 ± 2 | 1424 ± 10 | 1413 ± 10 | 1402 ± 10 | 1390 ± 10 | 1379 ± 10
x2 = 0.898 | 1353 ± 2 | 1349 ± 2 | 1344 ± 2 | 1340 ± 2 | 1336 ± 2 | 1431 ± 10 | 1420 ± 10 | 1409 ± 10 | 1398 ± 10 | 1386 ± 10
x2 = 0.953 | 1369 ± 2 | 1365 ± 2 | 1361 ± 2 | 1357 ± 2 | 1353 ± 2 | 1438 ± 10 | 1427 ± 10 | 1416 ± 10 | 1405 ± 10 | 1394 ± 10
